Test results taken from patent US20060239990A1, “Protein Arginine N-Methyltransferase 2 (PRMT-2)” (priority 2003, published 2006).

Key:
[1] = test system: IκBα; experiment: Confocal quantification of nuclear IκBα in PRMT2−/− fibroblasts; type: cell-based, mouse; conditions: after TNF-α 30 min, 30 minutes LMB
Description: Immunohistochemistry and confocal microscopy. PRMT2^−/− fibroblasts were transfected with a HA-tagged PRMT2 expression vector. 36 hrs after transfection the cells were treated with TNF-α for 30 min. The media was then removed and cells were incubated for an additional 30 minutes in the presence or absence of LMB. Cells were fixed, permeabilized with CytoFix-CytoPerm (BD Biosciences) for 20 minutes, and washed with Perm/Wash buffer (BD Biosciences). IκBα (Rabbit Polyclonal antibody, 1:1000; Santa Cruz Biotechnology) and HA (Rat Monoclonal antibody, 1:500; Roche) were diluted in Perm/Wash buffer and incubated for 1 hr. After two washes cells were stained with anti rabbit Alexa 488 and anti rat Alexa […] (1:1000, Invitrogen) for 30 min. Cells were washed and mounted with Ultracruz mounting media (Santa Cruz) containing DAPI. Confocal microscopy was performed using a Leica confocal microscope.

[2] = test system: Stat3; experiment: Leptin-stimulated Stat3 tyrosine phosphorylation in VSMC nuclear extracts; type: cell-based, mouse; conditions: o-vanadate 200 μM pretreatment 15 min
Description: Cytoplasmic/nuclear extracts were prepared by Dounce homogenizing cells in Cytoplasmic lysis buffer (20 mM HEPES, pH7.9, 10 mM KCl, 1 mM MgCl2, 1% NP-40, 10% glycerol, 100 mM NaF, 1 mM Na3VO4, 1× protease inhibitors cocktail), and sedimenting nuclei by centrifugation at 1,000 rpm for 5 min. The supernatants were removed as samples of cytoplasmic fraction. The nuclei were extracted with nuclear lysis buffer (20 mM HEPES, pH7.9, 300 mM NaCl, 10 mM KCl, 1 mM MgCl2, 1% […], 10% glycerol, […], 1 mM Na3VO4, 1× protease inhibitors cocktail), and then subjected to the immunoblotting.
Immunoblotting was performed by boiling samples for 5 min at 95° C. followed by centrifugation for 1 min at 4° C. Aliquots of the supernatant were subjected to 7.5, 10% or 4-15% SDS-PAGE. Proteins in the gel were transferred to a nitrocellulose membrane by electroblotting. The membranes were treated with either anti-pTyr, anti-STAT3, anti-phospho STAT3, anti-α-metR, anti-IRS-1, anti-Flag, anti-phospho IRS-1, anti-arginine (mono- and di-methyl), or anti-β-actin antibodies followed by incubation with secondary antibodies conjugated with HRP. Immunoreactive proteins were detected either by ECL or by ECL plus system (Amersham Pharmacia Biotech). In some cases, bands were quantified using the NIH Image software (Image J version 1.2; National Institutes of Health, Bethesda, Md.). […]

[3] = molecular target: T1, RB (Homo sapiens, UniProt P06400); experiment: In vitro binding assay with GST-RB; conditions: S35-labeled in vitro translated protein
T1 construct: coding region of RB cDNA was subcloned into pGEX-6P (Amersham/Pharmacia) for generation of GST-RB; made in house
T1 sequence (P06400 1-928): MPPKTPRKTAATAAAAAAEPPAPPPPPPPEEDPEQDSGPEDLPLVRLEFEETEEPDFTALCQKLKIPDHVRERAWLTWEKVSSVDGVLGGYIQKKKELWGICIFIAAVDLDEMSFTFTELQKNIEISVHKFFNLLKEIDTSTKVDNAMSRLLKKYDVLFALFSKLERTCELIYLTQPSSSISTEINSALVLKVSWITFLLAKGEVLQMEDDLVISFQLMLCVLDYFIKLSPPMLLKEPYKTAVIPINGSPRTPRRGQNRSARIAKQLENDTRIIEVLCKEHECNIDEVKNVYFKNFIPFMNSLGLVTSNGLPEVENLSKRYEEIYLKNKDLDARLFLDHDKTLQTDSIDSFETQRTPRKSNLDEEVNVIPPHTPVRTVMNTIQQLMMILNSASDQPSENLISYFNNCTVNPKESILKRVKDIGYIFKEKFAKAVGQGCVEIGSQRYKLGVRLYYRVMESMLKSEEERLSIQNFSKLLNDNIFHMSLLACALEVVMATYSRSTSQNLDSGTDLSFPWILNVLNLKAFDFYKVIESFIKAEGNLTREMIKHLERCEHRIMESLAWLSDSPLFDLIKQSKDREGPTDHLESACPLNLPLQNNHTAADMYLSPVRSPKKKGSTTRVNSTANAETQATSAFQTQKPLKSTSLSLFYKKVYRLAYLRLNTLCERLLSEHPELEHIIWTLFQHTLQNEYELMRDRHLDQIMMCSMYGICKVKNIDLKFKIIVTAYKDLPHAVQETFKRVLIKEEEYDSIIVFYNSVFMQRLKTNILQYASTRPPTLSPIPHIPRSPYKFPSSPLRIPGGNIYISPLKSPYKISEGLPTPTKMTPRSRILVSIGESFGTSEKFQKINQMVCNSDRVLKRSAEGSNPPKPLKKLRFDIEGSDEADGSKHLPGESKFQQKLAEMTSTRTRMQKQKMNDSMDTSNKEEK
Description: The crude cell lysate of the GST-fusion proteins was prepared and purified according to the manufacture's protocol (Amersham/Pharmacia). [^35S]-methionine-labeled protein was produced by in vitro transcription/translation using the TNT T7-coupled reticulocyte lysate system (Promega). [^35S]-methionine-labeled protein and GST-fusion protein bound to glutathione sepharose 4B beads were incubated in 500 μl of HNE buffer (50 mM Hepes, pH 7.8, 150 mM NaCl, 1 mM EDTA, 1 mM DTT, 1% NP40, and 1× protease inhibitor mix (Complete: Roche)) at 4° C. for 1 hour. Beads were washed four times with HNE buffer, and then analyzed on an SDS-PAGE gradient gel (4-15%). For the detection of endogenous PRMT-2 interaction with RB, MEFs were lysed with WCL buffer (50 mM Hepes, pH 7.8, 400 mM NaCl, 2 mM EDTA, 1 mM DTT, 0.2% NP40, 10% Glycerol, 20 mM α-glycerophosphate, 5 mM NaF, 0.1 mM NaVO4, and 1× protease inhibitor mix). Then, 1 mg of whole cell extracts were incubated with HNE buffer without DTT and 3 μg of antibodies as indicated. The immune complexes were isolated using protein G beads, and washed four times with HNE buffer. The precipitated protein was boiled with SDS-loading buffer and resolved on SDS-PAGE. […]

[4] = test system: HIV-1 LTR; experiment: HIV-1 reporter transcription, transient co-transfection; type: cell-based, human; conditions: 293T cells, expression plasmid co-transfected with HIV-1 reporter plasmid
Description: Cell culture, transfection, and reporter gene assays. The E1A-transformed, human kidney cell line, 293, and NIH-3T3 cells were maintained in Dulbecco's Modified Eagle Medium (DMEM) supplemented with 10% fetal calf serum and penicillin-streptomycin at 37° C. in 5% carbon dioxide in tissue culture grade Petri dishes. PRMT-2−/− mouse embryo fibroblasts (MEFs) and wild type MEFs were prepared from day 13.5 embryos and maintained in DMEM supplemented with 10% fetal calf serum. MEFs at passage 4 were used in this experiment. Lipofectamine Plus™ reagent (Boehringer Mannheim) was used to transfect both 293 and NIH-3T3 cells according to directions from the manufacturer. […] TNF-α stimulation of cells was done using recombinant TNF-α (200 U/ml) for 12 hours. Transfected cells were harvested at 36 hours, and CAT activity was assayed on 10 to 100 μg of protein from whole cell extracts. CAT assays were performed essentially as described in Leung, K. & Nabel, G. J. Nature 333, 776-778 (1988). To analyze the κB-reporter activity in MEFs, cells were transfected with the reporter (2×kB-Luc) and PRL-TK vector (Promega) using FuGENE6 transfection reagent (Roche). Luciferase activity was analyzed by Dual-Luciferase Reporter Assay System (Promega). […]

## CCC(=C/[C@H](C)C/C=C/C(C)=C/[C@@H](C)C(=O)[C@@H](C)[C@H](O)[C@@H](C)C/C(C)=C/C(=O)O)/C=C/[C@@H]1OC(=O)C=C[C@@H]1C [LMB, leptomycin B]
[1]
  nuclear IκBα: promoted nuclear accumulation of IκBα

## [O]=[V]([O-])([O-])[O-] [o-vanadate]
[2]; PRMT2−/− VSMC nuclear extracts
  leptin-stimulated tyrosine phosphorylation of Stat3: no enhancement of tyrosine phosphorylation of Stat3
[2]; wild-type VSMC nuclear extracts
  leptin-stimulated tyrosine phosphorylation of Stat3: further enhanced leptin-stimulated tyrosine phosphorylation of Stat3

## PRMT1: human protein arginine methyltransferase 1, expression construct [reference compound]
[3]
  binding to RB: do not bind RB
[4]
  stimulation of HIV-1 transcription: about 10 fold
